From US11578055B2, “Triazacyclododecansulfonamide (“TCD”)-based protein secretion inhibitors” (KEZAR LIFE SCIENCES, priority 2018, dated 2023)
Counter-ions that a name gives are not always drawn. Like-named read-outs stand apart in the source and are kept apart here.

Legend:
[1] = In Vitro Microsome Stability Assay (human); format: in vitro ADME; settings: human, 30 min, NADPH
Procedure: (§1) Potassium phosphate (423 μL of a 0.1 M solution) was added to 8-strip deep well tubes followed by human, mouse, rat, or monkey microsomes (25 μL of a 20 mg/mL solution). The tubes were then placed on ice and the test article (2 μL of a 0.25 mM solution in DMSO) was added. The mixture was preincubated at 37° C. for 3 to 5 minutes (shaking at 150 rpm) then the reaction was initiated by adding 50 μL NADPH. An aliquot of samples (100 μL) were collected at 0 and 30 min and 200 μL of an acetonitrile mixture containing IS (compound 914) was added to quench the reaction. After centrifuging for 10 min at 4000 rpm, a mixed solution of the 20 μL of the supernatant (20 μL) plus 100 μL ACN/H2O (1:1) were injected for LC-MS/MS analysis. Liver microsome stability is assessed by the % remaining of compound at 30 min which is calculated using the following equation: [(AUCanalyteT=30/AUCIS)/(AUCanalyteT=0/AUCIS)]*100
(§2) For chemical structures that include one or more stereoisomers, but are illustrated without indicating stereochemistry, the assay data refers to a mixture of stereoisomers.

[2] = test system: multiple myeloma cell line U266B1; assay: U266 Cell Viability Assay; format: cell-based, human; settings: 48 hr
Procedure: (§3) The human multiple myeloma cell line U266B1 was cultured in RPMI 1640 media supplemented with 10% fetal bovine serum, 2 mM Glutamine, and 1× Penicillin/Streptomycin. Cells were plated in 384-well tissue culture plates and treated with compound dilutions in DMSO/media. Plates were incubated at 37° C., 5% CO2 for 48 hours. After 48 hours, Celltiter-Glo® (Promega) was added to each well and luciferase signal was quantified using Tecan Infinite M1000 Pro for cell viability determination.
For chemical structures that include one or more stereoisomers, but are illustrated without indicating stereochemistry, the assay data refers to a mixture of stereoisomers

[3] = test system: multiple myeloma cell line NCl-H929; assay: H929 Cell Viability Assay; format: cell-based, human
Procedure: as §3, with “NCl-H929” for “U266B1”, “cultured in Advanced RPMI 1640 media (Gibco®) supplemented with 6% fetal bovine serum, 2 mM Glutamine, and 1× Penicillin/Streptomycin. On the day of assay, cells were resuspended” for “cultured”, “Penicillin/Streptmycin and” for “Penicillin/Streptomycin. Cells were”
as §2

[4] = In Vitro Microsome Stability Assay (rat); format: in vitro ADME; settings: rat, 30 min, NADPH
Procedure: as §1, §2

[5] = In Vitro Microsome Stability Assay (monkey); format: in vitro ADME; settings: monkey, 30 min, NADPH
Procedure: as §1, §2

[6] = test system: PD1 signal sequence plus 10 amino acids fused to Gaussia Luciferase (PD1-ss+10aa/Gaussia Luciferase); assay: Dox Induced PD1-ss-Gluc Assay; format: cell-based; settings: 24 hr, 293FRT/TO; read-out: 24 hr Dox Inducible PD1ssGluc 293FRT/TO: Mean IC50
Source text: FIp-In 293 T-REx™ cells were transfected with pcDNA™5/FRT/TO plasmid inserted with cDNA encoding Gaussia Luciferase fused to the 3′ end of cDNA encoding PD1 signal sequence plus 10 amino acids (N-[…]-C) (SEQ ID NO: 1). Transfected cells were selected for resistance to the selectable markers Hygromycin and Blasticidin to create a stable cell line that contained the PD1-ss+10aa/Gaussia Luciferase cDNA insert whose expression was regulated under the T-REx™ system. The day before assay, cells were trypsinized and plated in 384-well tissue culture plates. The next day, compound dilutions in DMSO/media containing doxycycline were added to the wells and incubated at 37° C., 5% CO2.
as §2

[7] = In Vitro Microsome Stability Assay (mouse); format: in vitro ADME; settings: mouse, 30 min, NADPH
Procedure: as §1, §2

[8] = test system: full length TNFα (amino acids 1-233) fused to Gaussia Luciferase; assay: Dox Induced TNFα-FL-Gluc Assay; format: cell-based; settings: 24 hr, 293FRT/TO; read-out: 24 hr Dox Inducible TNFaFLGluc 293FRT/TO: Mean IC50
Source text: FIp-In 293 T-REx™ cells were transfected with pcDNA™5/FRT/TO plasmid inserted with cDNA encoding Gaussia Luciferase fused to the 3′ end of cDNA encoding full length TNFα (amino acids 1-233). Transfected cells were selected for resistance to the selectable markers Hygromycin and Blasticidin to create a stable cell line that contained the TNFα-FL/Gaussia Luciferase cDNA insert whose expression was regulated under the T-REx™ system. The day before assay, cells were trypsinized and plated in 384-well tissue culture plates. The next day, compound dilutions in DMSO/media containing doxycycline were added to the wells and incubated at 37° C., 5% CO2.
as §2

[9] = Homo sapiens, U-266, U266, read-out: 48 hr U266 Viability Celltiter-Glo: Mean EC50
[10] = 48 hr, H929, read-out: 48 hr H929 Viability Celltiter-Glo: Mean EC50
[11] = Homo sapiens, NCI-H929, 48 h, H929, read-out: 48 hr H929 Viability Celltiter-Glo: Mean EC50

SMILES	Liver Microsome Stability-% Left after 30 min w/ NADPH (%) Human [1]	EC50 [2, 9]	EC50 [3, 10]	Liver Microsome Stability-% Left after 30 min w/ NADPH (%) Rat [4]	Liver Microsome Stability-% Left after 30 min w/ NADPH (%) Monkey [5]	IC50 [6]	Liver Microsome Stability-% Left after 30 min w/ NADPH (%) Mouse [7]	IC50 [8]	EC50 [3, 11]	EC50 ([2]; U266, read-out: 48 hr U266 Viability Celltiter-Glo: Mean EC50)	EC50 ([2]; Homo sapiens, U-266, U266, Celltiter-Glo)	EC50 ([3]; Homo sapiens, NCI-H929, 48 h, H929, Celltiter-Glo)
C=C1CN(S(=O)(=O)c2ccc(C)cc2)CCCN(CC2CCCCC2)CCCN(S(=O)(=O)C2CCCCC2)C1 [A5]	0.24%	> 25 µM	8.43 µM	0.24%	0.31%	0.651 µM	0.27%	> 25 µM	–	–	–	–
C=C1CN(S(=O)(=O)CC)CCCN(CC2CCCCC2)CCCN(S(=O)(=O)c2ccc(C)cc2)C1 [A6, 9-(cyclohexylmethyl)-1-(ethanesulfonyl)-5-(4-methylbenzenesulfonyl)-3-methylidene-1,5,9-triazacyclododecane]	0.53%	> 25 µM	–	0.17%	0.44%	4.75 µM	0.12%	> 25 µM	24.1 µM	–	–	–
C=C1CN(S(=O)(=O)c2ccc(C)cc2)CCCN(CC2CCCCC2)CCCN(S(=O)(=O)C(C)C)C1 [A7, 9-(cyclohexylmethyl)-1-(4-methylbenzenesulfonyl)-3-methylidene-5-(propane-2-sulfonyl)-1,5,9-triazacyclododecane]	0.29%	> 25 µM	–	0.23%	0.99%	2.31 µM	0.17%	> 25 µM	22.4 µM	–	–	–
C=C1CN(S(=O)(=O)c2ccc(C)cc2)CCCN(CC2CCCCC2)CCCN(S(=O)(=O)C2CCCCC2)C1 [A8, 1-(cyclohexanesulfonyl)-9-(cyclohexylmethyl)-5-(4-methylbenzenesulfonyl)-3-methylidene-1,5,9-triazacyclododecane]	0.09%	–	> 25 µM	0.61%	0.19%	2.68 µM	0.17%	> 25 µM	–	> 25 µM	–	–
C=C1CN(S(=O)(=O)c2ccc(C)cc2)CCCN(CC2CCOCC2)CCCN(S(=O)(=O)c2ccc(N(C)C)cc2)C1 [A9, N,N-dimethyl-4-{[5-(4-methylbenzenesulfonyl)-3-methylidene-9-[(oxan-4-yl)methyl]-1,5,9-triazacyclododecan-1-yl]sulfonyl}aniline]	0.09%	> 25 µM	–	0.14%	0.66%	1.11 µM	0.34%	> 25 µM	> 25 µM	–	–	–
C=C1CN(S(=O)(=O)c2ccc(C)cc2)CCCN(CC2CCC(C)(C)CC2)CCCN(S(=O)(=O)c2ccc(N(C)C)cc2)C1 [A10, 4-((9-((4,4-dimethylcyclohexyl)methyl)-3-methylene-5-tosyl-1,5,9-triazacyclododecan-1-yl)sulfonyl)-N,N-dimethylaniline hydrochloride]	0.77%	> 25 µM	–	8.85%	0.14%	0.123 µM	0.2%	4.69 µM	2.86 µM	–	–	–
C=C1CN(S(=O)(=O)c2ccc(C)cc2)CCCN(C(=O)OCCC)CCCN(S(=O)(=O)c2ccc(N(C)C)cc2)C1 [A12, propyl 5-((4-(dimethylamino)phenyl)sulfonyl)-7-methylene-9-tosyl-1,5,9-triazacyclododecane-1-carboxylate]	0.11%	> 25 µM	–	0.07%	0.22%	0.858 µM	0.1%	> 25 µM	> 25 µM	–	–	–
C=C1CN(S(=O)(=O)c2ccc(N(C)C)cc2)CCCN(CC2CCCCC2)CCCN(S(=O)(=O)N2CCCCC2)C1 [A13, 4-{[9-(cyclohexylmethyl)-3-methylidene-5-(piperidine-1-sulfonyl)-1,5,9-triazacyclododecan-1-yl]sulfonyl}-N,N-dimethylaniline]	0.65%	> 25 µM	–	0.1%	0.1%	0.025 µM	0.04%	1.47 µM	0.987 µM	–	–	–
C=C1CN(S(=O)(=O)c2ccc(N(C)C)cc2)CCCN(CC2CCCCC2)CCCN(S(=O)(=O)N(C)C)C1 [A16, 9-(cyclohexylmethyl)-5-[4-(dimethylamino)benzenesulfonyl]-N,N-dimethyl-3-methylidene-1,5,9-triazacyclododecane-1-sulfonamide]	0.11%	> 25 µM	–	2.62%	41.1%	0.108 µM	2.09%	6.34 µM	4.98 µM	–	–	–
CN(C)c1ccc(S(=O)(=O)N2CCCN(CC3CCCCC3)CCCN(S(=O)(=O)N3CCC(O)CC3)CC3(CC3)C2)cc1 [A28, 1-{[9-(cyclohexylmethyl)-13-[4-(dimethylamino)benzenesulfonyl]-5,9,13-triazaspiro[2.11]tetradecan-5-yl]sulfonyl}piperidin-4-ol]	–	> 25 µM	–	0.14%	0.06%	5.25 µM	0.06%	> 25 µM	10.4 µM	–	–	–
COc1ccc(F)cc1N1CCN(S(=O)(=O)N2CCCN(CC3CCCCC3)CCCN(S(=O)(=O)c3ccc(N(C)C)cc3)C[C@H](C)C2)CC1 [A176]	–	–	–	–	–	–	–	–	–	–	> 25 µM	3.11 µM
